In article PMC6356299, “Design and Synthesis of a Chitodisaccharide-Based Affinity Resin for Chitosanases Purification” (Marine Drugs, 2019):
Converted amounts (≈) assume the structure as drawn.

What follows are compounds tested against T1, CsnOU01 (GH family 46 chitosanase) (Microbacterium sp. OU01, UniProt A7KBW5) (assay: equilibrium adsorption to ligand-coupled Sepharose 6B, Scatchard analysis). Conditions: compound immobilised on Sepharose 6B via cyanuric chloride spacer (not the free sugar); Kd in mass concentration of enzyme; 20 mM Tris-HCl, pH 8.0.
T1 construct: about 28 kDa
T1 sequence (A7KBW5 26-266): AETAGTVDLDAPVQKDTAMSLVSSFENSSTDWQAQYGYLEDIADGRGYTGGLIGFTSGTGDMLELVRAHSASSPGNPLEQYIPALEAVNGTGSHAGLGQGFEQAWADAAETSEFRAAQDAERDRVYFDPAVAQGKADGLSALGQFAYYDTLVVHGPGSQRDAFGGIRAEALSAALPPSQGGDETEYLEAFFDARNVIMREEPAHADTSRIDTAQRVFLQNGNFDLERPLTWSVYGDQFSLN
Format: binding
From the text: equilibrium adsorption to ligand-coupled Sepharose 6B, Scatchard analysis on CsnOU01 (GH family 46 chitosanase)

Compound | Kd
N[C@H]1[C@H](O[C@H]2[C@H](O)[C@@H](N)C(O)O[C@@H]2CO)O[C@H](CO)[C@@H](O)[C@@H]1O (stereo partly drawn) [CHDS, chitodisaccharide] | 16.4 µg/mL (≈ 48.2 µM)
chitotrisaccharide [CHTS] | 20.7 µg/mL
glucosamine | 88.5 µg/mL
